One experiment addresses T1, Human ACC1 (Homo sapiens, UniProt Q13085).
T1 construct: made in house; host or cells: SF-9 insect cells (baculovirus, pFAST-BacHTc)
Nature of the experiment: In vitro enzymatic ACC activity assay (malachite green), ACC1. The experiment is classed as biochemical. Particulars: recombinant His-tagged enzyme, absorbance at 620 nm. Here is the method:
(§1) Provided in Example A is an in vitro enzymatic ACC activity assay for activity against ACC. The binding affinity of the test compound to ACC1 or ACC2 is determined by the changes in absorbance (at 620 nm); […]. It should be noted that a variety of other expression systems and hosts are also suitable for the expression of ACC, as would be readily appreciated by one of skill in the art.
Human ACC1 cDNA was amplified from human liver cDNA by polymerase chain reaction using primers; 5′[…]3′ (SEQ ID NO: 1) and 5′[…]3′ (SEQ ID NO: 2). The amplified DNA fragment was digested by restriction enzyme SalI and NotI, and cloned into pFAST-BacHTc (Invitrogen). This plasmid DNA was used for preparation of recombinant vaculovirus with BAC-TO-BAC Baculovirus Expression System (Invitrogen).
SF-9 cells were infected with the vaculovirus and cultured at 27° C. for 3 days. Harvested cells were homogenized in buffer A (25 mM HEPES (pH7.5), 130 mM NaCl, 1 mM EDTA, 25 mM sodium glycerophosphate, 1 mM sodium orthovanadate, 10% glycerol, complete protease inhibitor), and subjected to ultracentrifuge at 185700×g for 50 min at 4° C. ACC1 protein with 6×His-tag at the N-terminal was purified from the supernatant using Ni-NTA Super Flow Gel (QIAGEN). Eluted protein was dialysed against buffer B (50 mM HEPES (pH 7.5), 300 mM NaCl, 10 mM MgCl2, 10 mM tripotassium citrate, 2 mM dithiothreitol) and concentrated using Vivaspin20 ultrafiltration tube (Sartorius).
(§2) Malachite green solution was prepared by mixing 100 mL of solution A (0.12% malachite green in 5NH2SO4), 25 mL of solution B (7.5% ammonium molybdate) and 2 mL of solution C (11% TWEEN-20).
(§3) ACC1 was diluted to 8 μg/mL in reaction buffer (50 mM HEPES pH7.5, 10 mM MgCl2, 10 mM tripotassium citrate, 2 mM DTT, 0.75 mg/mL fatty acid free BSA) and 10 μL diluted enzyme solution was pored into each well of 384-well clear bottom plate. Test compound was diluted in the reaction buffer and 5 μL of the compound solution was added into each well, and the mixture was incubated at 30° C. for 60 minutes. Reaction was initiated by addition of 5 μL substrate solution (50 mM KHCO3, 200 μM ATP, 200 μM acetyl-CoA). After incubation at 30° C. for 20 minutes, reaction was terminated by addition of 5 μL malachite green solution and absorbance at 620 nm was measured.
(§4) Percent activity at each concentration of compound was calculated from the following equation: […]
(§5) Data were subjected to nonlinear regression analysis using GraphPad Prism Software (GraphPad Software Inc.) to obtain IC50 values.

The target of another experiment is T2, Human ACC2 (Homo sapiens, UniProt O00763).
T2 construct: made in house; host or cells: SF-9 insect cells (baculovirus, pFAST-BacHTa)
T2 sequence (O00763 117-2458 limits assumed): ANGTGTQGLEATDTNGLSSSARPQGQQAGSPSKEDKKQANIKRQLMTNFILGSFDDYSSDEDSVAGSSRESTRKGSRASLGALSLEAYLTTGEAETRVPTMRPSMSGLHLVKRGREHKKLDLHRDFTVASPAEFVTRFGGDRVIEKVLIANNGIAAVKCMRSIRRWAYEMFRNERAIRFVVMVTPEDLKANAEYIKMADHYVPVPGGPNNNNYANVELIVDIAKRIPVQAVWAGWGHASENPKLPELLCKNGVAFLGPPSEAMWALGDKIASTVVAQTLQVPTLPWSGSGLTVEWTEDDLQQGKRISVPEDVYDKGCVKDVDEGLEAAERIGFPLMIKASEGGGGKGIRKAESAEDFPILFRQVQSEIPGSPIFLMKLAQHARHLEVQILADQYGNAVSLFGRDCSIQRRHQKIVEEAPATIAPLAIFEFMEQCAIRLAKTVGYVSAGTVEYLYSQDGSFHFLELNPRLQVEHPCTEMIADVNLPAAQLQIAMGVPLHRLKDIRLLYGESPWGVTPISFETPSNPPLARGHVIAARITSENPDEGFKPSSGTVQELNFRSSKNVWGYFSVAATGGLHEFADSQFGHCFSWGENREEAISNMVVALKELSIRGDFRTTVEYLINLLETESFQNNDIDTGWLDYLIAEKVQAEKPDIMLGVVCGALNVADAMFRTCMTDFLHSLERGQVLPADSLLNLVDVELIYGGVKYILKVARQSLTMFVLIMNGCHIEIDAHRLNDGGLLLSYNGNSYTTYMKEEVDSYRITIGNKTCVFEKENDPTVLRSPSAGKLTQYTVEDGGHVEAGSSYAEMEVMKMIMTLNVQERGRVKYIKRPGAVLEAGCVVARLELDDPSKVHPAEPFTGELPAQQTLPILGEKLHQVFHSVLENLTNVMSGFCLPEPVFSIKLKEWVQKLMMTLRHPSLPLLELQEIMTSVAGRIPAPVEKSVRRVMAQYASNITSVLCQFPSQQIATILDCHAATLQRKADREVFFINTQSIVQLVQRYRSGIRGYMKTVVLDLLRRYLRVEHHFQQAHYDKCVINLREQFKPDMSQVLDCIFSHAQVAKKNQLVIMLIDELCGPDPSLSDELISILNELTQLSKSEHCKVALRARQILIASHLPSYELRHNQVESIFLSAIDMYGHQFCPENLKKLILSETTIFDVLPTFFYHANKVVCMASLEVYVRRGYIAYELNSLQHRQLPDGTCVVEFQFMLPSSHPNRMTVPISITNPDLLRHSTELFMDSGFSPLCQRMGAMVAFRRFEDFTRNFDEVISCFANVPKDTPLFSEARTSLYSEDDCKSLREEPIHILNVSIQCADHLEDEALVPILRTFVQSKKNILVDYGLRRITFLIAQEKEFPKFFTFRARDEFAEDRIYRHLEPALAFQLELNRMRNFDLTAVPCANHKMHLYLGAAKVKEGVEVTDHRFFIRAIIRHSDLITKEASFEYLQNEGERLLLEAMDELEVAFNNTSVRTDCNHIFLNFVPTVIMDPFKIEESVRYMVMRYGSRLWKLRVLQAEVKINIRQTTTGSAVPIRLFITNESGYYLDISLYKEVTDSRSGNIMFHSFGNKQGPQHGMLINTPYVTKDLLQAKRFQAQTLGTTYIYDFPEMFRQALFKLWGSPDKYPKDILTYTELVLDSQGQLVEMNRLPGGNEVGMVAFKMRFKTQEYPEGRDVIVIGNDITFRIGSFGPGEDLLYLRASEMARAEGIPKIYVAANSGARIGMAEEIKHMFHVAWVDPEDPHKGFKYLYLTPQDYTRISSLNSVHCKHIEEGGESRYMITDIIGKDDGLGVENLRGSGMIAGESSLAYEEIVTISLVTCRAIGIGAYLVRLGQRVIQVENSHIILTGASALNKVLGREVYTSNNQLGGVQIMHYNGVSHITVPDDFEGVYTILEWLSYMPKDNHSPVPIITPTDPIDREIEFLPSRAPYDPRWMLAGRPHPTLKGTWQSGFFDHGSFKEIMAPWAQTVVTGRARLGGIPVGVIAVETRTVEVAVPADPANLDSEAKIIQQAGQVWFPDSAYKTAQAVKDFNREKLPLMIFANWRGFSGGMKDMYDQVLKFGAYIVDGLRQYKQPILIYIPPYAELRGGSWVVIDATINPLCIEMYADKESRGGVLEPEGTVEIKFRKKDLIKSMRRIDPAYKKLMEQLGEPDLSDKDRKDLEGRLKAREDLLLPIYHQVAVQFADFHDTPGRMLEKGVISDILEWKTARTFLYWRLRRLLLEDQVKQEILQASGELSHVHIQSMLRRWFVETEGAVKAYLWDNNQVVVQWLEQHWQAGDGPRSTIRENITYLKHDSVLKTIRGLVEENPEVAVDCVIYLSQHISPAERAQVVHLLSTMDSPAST
Nature of the experiment: In vitro enzymatic ACC activity assay (malachite green), ACC2. Type of experiment: biochemical. Particulars: recombinant His-tagged enzyme, absorbance at 620 nm. As for the experimental part:
as §1
Human ACC2 cDNA except coding region for mitochondria localization sequence was amplified from human skeletal muscle cDNA by polymerase chain reaction using primers; 5′[…]3′ (SEQ ID NO: 3) and 5′[…]3′ (SEQ ID NO: 4). The amplified DNA fragment was digested by SalI and AflII, and cloned into pFAST-BacHTa (Invitrogen). Preparation of recombinant vaculovirus, infection of the virus to SF-9 cells and purification of recombinant ACC2 protein with 6×His-tag at the N-terminal were performed in the same method as described above.
as §2, §3
ACC2 was diluted to 6.4 μg/mL in reaction buffer, and the activity was measured by the same method as described for ACC1.
as §4, §5

Drawing on patent US20090005375A1, “ACETYL COENZYME A CARBOXYLASE INHIBITORS” (priority 2007, published 2009), this text covers IC50 for 5 molecules.

What is called IC50 is the concentration that gives 50% inhibition. Consider `CCNC(=O)Nc1sc2ccccc2c1C(=O)N1CCN(S(=O)(=O)c2ccc(NC(C)=O)cc2)CC1` [Example 24, N-(4-(4-(2-(3-ethylureido)benzo[b]thiophene-3-carbonyl)piperazin-1-ylsulfonyl)phenyl)acetamide], for which the IC50 at Human ACC1 and at Human ACC2 was below 5 µM throughout.

With `CCNC(=O)Nc1sc2ccccc2c1C(=O)N1CCN(S(=O)(=O)CCC(=O)OCC)CC1` [Example 25, Ethyl 3-(4-(2-(3-ethylureido)benzo[b]thiophene-3-carbonyl)piperazin-1-ylsulfonyl)propanoate], the IC50 at Human ACC1 and on Human ACC2 was 5 to 50 µM throughout.

Take `CCNC(=O)Nc1sc2ccccc2c1C(=O)N1CCC(Sc2cccc(OC)c2)CC1` [Example 39, ethyl-3-(3-(4-(3-methoxyphenylthio)piperidine-1-carbonyl)benzo[b]thiophen-2-yl)urea]: the IC50 at Human ACC1 and at Human ACC2 was below 5 µM in each case.

In the case of `CCNC(=O)Nc1sc2ccccc2c1C(=O)N1CCN(S(=O)(=O)c2ccc3c(c2)NC(=O)C3)CC1` [Example 30, ethyl-3-(3-(4-(2-oxoindolin-6-ylsulfonyl)piperazine-1-carbonyl)benzo[b]thiophen-2-yl)urea], the IC50 on Human ACC1 was 5 to 50 µM; at Human ACC2, below 5 µM.

In the case of `CCNC(=O)Nc1sc2ccccc2c1C(=O)N1CCN(S(=O)(=O)c2ccccc2)CC1` [Example 3, ethyl-3-(3-(4-(phenylsulfonyl)piperazine-1-carbonyl)benzo[b]thiophen-2-yl)urea], the IC50 at Human ACC1 and on Human ACC2 was above 50 µM throughout.
